Consider ten substances from patent US20230265614A1, “WATER INSOLUBLE, HIGH MELTING POINT SACCHARIDE FATTY ACID ESTERS (SFAE)” (GREENTECH GLOBAL PTE. LTD., priority 2021, published 2023).

The series can be described thus: Solubility in water at 25° C. of specific SFAEs. Particulars: water insoluble = does not dissolve in water at 25° C. It is filed as physicochemical.
For raffinose monolaurate, the “Solubility in Water at 25° C.” value is “soluble”.
Next, raffinose monostearate: “soluble”; trehalose dilaurate: “Insoluble”.
Under trehalose dimyristate stands “Insoluble”; under trehalose dipalmitate, “Insoluble”; under trehalose distearate, “Insoluble”.
For trehalose monolaurate, the “Solubility in Water at 25° C.” value is “soluble”.
Regarding trehalose monomyristate, the “Solubility in Water at 25° C.” value is given as “Insoluble”.
Next, trehalose monopalmitate: “Insoluble”; trehalose monostearate: “Insoluble”.
